Literature values as cited in patent US20210379001A1, “SUPPLEMENT INCLUDING GAMMA-AMINOBUTYRIC ACID FOR RESTORING GROWTH HORMONE LEVELS” (1198966 B.C. LTD., priority 2020, published 2021).

Test system: GABA levels in rat striatal tissue and striatal extracellular fluid

In the case of `NC(=O)CC[C@H](N)C(=O)O` [L-Glutamine], the “striatal GABA levels” value (2,5 h after oral 2.0 g/kg of glutamine, vehicle-treated rats 1.76+/−0.04) is listed as 2.00 ± 0.15 µmol/g, the “response evoked by NMDA, over baseline” value (ECF GABA, NMDA alone 70%, P<0.05) is listed as 120% and the “increase of ECF GABA concentrations” value (rat striatal extracellular fluid, P<0.05) is listed as 30%.
